These results are taken from patent US6225478A, “Iridoid derivatives and neovascularization inhibitors containing the same as active ingredient” (Tsumura & Co., priority 1999, dated 2001).

Test [1] deals with human umbilical-vein endothelial cells (HUVEC). Description: Tube Formation Assay (TFA) Test, HUVEC in collagen gel. It is filed as cell-based. The note with it: Tables 75-83, 0.32 mM sample solution, method as for Compounds 1 through 60; for inhibition at 320 µM (stock): Homo sapiens, HUVEC, read-out: TFA Inhibition rate (%). In short, it runs like this:
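Inhibition rate (%) of tube formation is computed from tube lengths against control (+) and control (-), measured after 20 h at 37 °C in M-199 with 20% FCS, 30 ng/ml b-FGF and 0.1 μM PMA. Samples were applied to HUVEC on collagen and covered by a second collagen layer (double-layer gel).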

For another test, the system named is HUFEC. Description: Cell Migration Assay (CMA) Test, inhibitory rate with control (-) correction. The format is cell-based, human. Particulars: 125 μl of 0.32 mM sample solution in 4.0 ml medium, 80% or more = remarkable; for inhibition at 320 µM (stock): Homo sapiens, 24 h. An outline of the steps:
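Confluent HUFEC monolayers were scratch-wounded, then cultured 24 h at 37 °C, 5% CO2 in M199 (2+) medium with compound added as 125 μl of a 0.32 mM solution (3.2% DMSO) per 4 ml. Giemsa-stained cells migrating into 1 mm×1 mm blocks counted; inhibition % calculated relative to control (+) and control (−) wells.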

As to `COC(=O)C1=CO[C@@H](OC(=O)NCCOCCO)[C@@H]2C(C)=CC[C@H]12` [I-101], the inhibition at 320 µM (stock) was 6.3% in test [1] and 15.7% with HUFEC.

As for `COC(=O)C1=CO[C@@H](OC(=O)Nc2ccc(SC)cc2)[C@@H]2C(C)=CC[C@H]12` [I-172], the values for the inhibition at 320 µM (stock) (in test [1]; with HUFEC) were 8.7% and 5.5%, respectively.

`COC(=O)C1=CO[C@@H](OC(=O)NN2CCN(C)CC2)[C@@H]2C(C)=CC[C@H]12` [I-73]: the values for the inhibition at 320 µM (stock) (in test [1]; in the test with HUFEC) were 8.2% and 15.6%, respectively.

Consider `CNC(=O)O[C@@H]1OC=C(C(=O)N2CCN(CCO)CC2)[C@H]2CC=C(C)[C@@H]12` [I-309], for which the inhibition at 320 µM (stock) in test [1] was 5.2%; in the test with HUFEC, 48%.

Regarding `COC(=O)C1=CO[C@@H](OC(=O)NCC2CCCO2)[C@@H]2C(C)=CC[C@H]12` (stereo partly drawn) [I-78], the inhibition at 320 µM (stock) in test [1] was determined as 5.1%; in the test on HUFEC, 23.4%.

Turning to `COC(=O)C1=CO[C@@H](OC(=O)NCCCN2CCOCC2)[C@@H]2C(C)=CC[C@H]12` [I-124], the figures for the inhibition at 320 µM (stock) (in test [1]; in the test with HUFEC) were 2.6% and 5.7%, respectively.

Turning to `COC(=O)CNC(=O)O[C@@H]1OC=C(C(=O)OC)[C@H]2CC[C@H](C)[C@@H]12` [I-246], the inhibition at 320 µM (stock) in test [1] was found to be 4.9%; in the test on HUFEC, 23.4%.

Regarding `COC(=O)C1=CO[C@@H](OC(=O)NCC#N)[C@@H]2C(C)=CC[C@H]12` [I-132], the results for the inhibition at 320 µM (stock) (in test [1]; with HUFEC) were 3.9% and 15.6%, respectively.

On to `C[C@]12O[C@H]1C[C@@H]1C(C(=O)N3CCN(CCO)CC3)=COC[C@@H]12` [I-304], for which the inhibition at 320 µM (stock) in test [1] came to 11.2%; with HUFEC it was 9.4%.

In the case of `CNC(=O)OCC1=CC[C@@H]2C(C(=O)OC)=CO[C@@H](OC(=O)NC)[C@H]12` [I-287], the figures for the inhibition at 320 µM (stock) (in test [1]; in the test with HUFEC) were 30.1% and 35.2%, respectively.

With `COC(=O)C1=CO[C@@H](OC(=O)NCCO)[C@H]2[C@@H]1CC[C@@H]2C` [I-187], the figures for the inhibition at 320 µM (stock) (in test [1]; in the test on HUFEC) were 11.7% and 31.3%, respectively.

For the molecule `COC(=O)C1=CO[C@@H](OC(=O)NCc2ccc3c(c2)OCO3)[C@H]2[C@@H]1CC[C@@H]2C` [I-234], the inhibition at 320 µM (stock) (in test [1]; in the test on HUFEC) was 7.3% in each case.

For the molecule `COC(=O)C1=CO[C@@H](OC(=O)NCc2ccco2)[C@H]2[C@@H]1CC[C@@H]2C` [I-215], the inhibition at 320 µM (stock) in test [1] is 8.1%; with HUFEC, 21.5%.

As for `COC(=O)C1=CO[C@@H](OC(=O)NCCc2c[nH]c3ccccc23)[C@H]2[C@@H]1CC[C@@H]2C` [I-220], the inhibition at 320 µM (stock) was found to be 7.4% in test [1] and 25% in the test with HUFEC.

For the molecule `COC(=O)C1=CO[C@@H](OC(=O)Nc2ccc(C)cc2)[C@H]2[C@@H]1CC[C@@H]2C` [I-270], the figures for the inhibition at 320 µM (stock) (in test [1]; in the test on HUFEC) were 5.9% and 28.7%, respectively.

For the molecule `COC(=O)C1=CO[C@@H](OC(=O)NCCN(C)C)[C@@H]2C(C)=CC[C@H]12` [I-117], the inhibition at 320 µM (stock) in test [1] is 26.8%; in the test on HUFEC, 28.1%.

In the case of `COC(=O)C1=CO[C@@H](OC(=O)NCC2CC2)[C@H]2[C@@H]1CC[C@@H]2C` [I-241], the inhibition at 320 µM (stock) in test [1] came out at 5.1%; with HUFEC it was 12.6%.

`COC(=O)C1=CO[C@@H](OC(=O)Nc2ccc(OC(F)(F)F)cc2)[C@H]2[C@@H]1CC[C@@H]2C` [I-266]: the inhibition at 320 µM (stock) turned out to be 4.9% in test [1] and 9.4% in the test with HUFEC.

Take `C[C@]12O[C@H]1C[C@@H]1C(C(=O)O)=CO[C@@H](OC(=O)NCCCl)[C@@H]12` [I-67]: in test [1], the “TFA (inhibition rate, %)” value was found to be 19.7%. Further, the “CMA Inhibition rate (%)” value in the test with HUFEC (24 hours) was determined as 29.5%.

`COC(=O)C1=CO[C@@H](OC(=S)N(C)C)[C@H]2[C@@H]1C[C@@H]1O[C@]21C` [I-284]: the inhibition at 320 µM (stock) in test [1] stood at 23.1%; in the test with HUFEC, 32.5%.

In the case of `CCCCCCC1CC[C@@H]2C(C(=O)OC)=CO[C@@H](OC(=O)NC)[C@H]12` (stereo partly drawn) [I-300], the inhibition at 320 µM (stock) stood at 14.6% in test [1] and 8% in the test with HUFEC.

As for `CCC(CC)NC(=O)O[C@@H]1OC=C(C(=O)OC)[C@H]2CC=C(C)[C@@H]12` [I-102], the figures for the inhibition at 320 µM (stock) (in test [1]; in the test on HUFEC) were 8.2% and 15.6%, respectively.

As to `COC(=O)C1=CO[C@@H](OC(=O)Nc2cccc(C(C)=O)c2)[C@H]2[C@@H]1CC[C@@H]2C` [I-273], the results for the inhibition at 320 µM (stock) (in test [1]; with HUFEC) were 17.5% and 3.8%, respectively.

As for `COC(=O)C1=CO[C@@H](OC(=O)Nc2c(F)cccc2F)[C@H]2[C@@H]1CC[C@@H]2C` [I-276], the inhibition at 320 µM (stock) was 8.2% in test [1] and 5.7% with HUFEC.

Regarding `COC(=O)C1=CO[C@@H](OC(=O)NCC(C)C)[C@@H]2C(C)=CC[C@H]12` [I-87], the inhibition at 320 µM (stock) in test [1] came out at 8.6%; with HUFEC it was 8%.

As for `COC(=O)C1=CO[C@@H](OC(=O)NCCSCc2ccccc2)[C@H]2[C@@H]1CC[C@@H]2C` [I-253], the inhibition at 320 µM (stock) worked out at 5.7% in test [1] and 25.1% with HUFEC.

On to `COC(=O)C1=CO[C@@H](OC(=O)N2CCCCC2)[C@@H]2C(C)=CC[C@H]12` [I-111], for which the inhibition at 320 µM (stock) was determined as 2.9% in test [1] and 9.4% with HUFEC.

Take `COC(=O)C1=CO[C@@H](OC(=O)NCCCl)[C@@H]2C(COC(=O)NCCCl)=CC[C@H]12` [I-288]: the inhibition at 320 µM (stock) turned out to be 2.4% in test [1] and 15.9% with HUFEC.

As for `CCCCCCC1CC[C@@H]2C(C(=O)OC)=COC[C@H]12` (stereo partly drawn) [I-294], the inhibition at 320 µM (stock) in test [1] amounted to 7.8%; with HUFEC it was 4.5%.

With `COC(=O)C1=CO[C@@H](OC(=O)Nc2cccc(C(C)=O)c2)[C@@H]2C(C)=CC[C@H]12` [I-171], the inhibition at 320 µM (stock) in test [1] came to 5.8%; in the test on HUFEC it was 3%.

Consider `CNC(=O)O[C@@H]1OC=C(C)[C@H]2CC[C@H](C)[C@@H]12` [I-278], for which the inhibition at 320 µM (stock) in test [1] stood at 20.2%; with HUFEC, 125%.

`COC(=O)C1=CO[C@@H](OC(=O)N2CCSCC2)[C@H]2[C@@H]1CC[C@@H]2C` [I-219]: the inhibition at 320 µM (stock) in test [1] was 30.6%; in the test with HUFEC it was 6.3%.

For `COC(=O)C1=CO[C@@H](OC(=O)NC(CO)CO)[C@H]2[C@@H]1CC[C@@H]2C` [I-249], the inhibition at 320 µM (stock) is 11.1% in test [1] and 44% in the test on HUFEC.

For `COC(=O)C1=CO[C@@H](OC(=O)NCc2ccccn2)[C@H]2[C@@H]1CC[C@@H]2C` [I-177], the inhibition at 320 µM (stock) is 15% in test [1] and 5% with HUFEC.

In the case of `COC(=O)C1=CO[C@@H](OC(=O)NCc2ccc(F)cc2F)[C@H]2[C@@H]1CC[C@@H]2C` [I-195], the inhibition at 320 µM (stock) in test [1] amounted to 3.7%; with HUFEC, 15.7%.

For the molecule `COC(=O)C1=CO[C@@H](OC(=O)N(C)CCc2ccc(OC)c(OC)c2)[C@@H]2C(C)=CC[C@H]12` [I-122], the inhibition at 320 µM (stock) in test [1] turned out to be 9.1%; with HUFEC, 10.3%.

As for `COC(=O)C1=CO[C@@H](OC(=O)NCCS)[C@H]2[C@@H]1CC[C@@H]2C` [I-236], the inhibition at 320 µM (stock) in test [1] was found to be 10.4%; in the test with HUFEC it was 28.1%.

`COC(=O)C1=CO[C@@H](OC(=O)NCc2cccc(F)c2)[C@@H]2C(C)=CC[C@H]12` [I-127]: the inhibition at 320 µM (stock) (in test [1]; in the test on HUFEC) was 5.3% in each case.

Consider `COC(=O)C1=CO[C@@H](OC(=O)NCc2cccc(C(F)(F)F)c2)[C@H]2[C@@H]1CC[C@@H]2C` [I-233], for which the values for the inhibition at 320 µM (stock) (in test [1]; with HUFEC) were 4.1% and 5.5%, respectively.

Consider `CNC(=O)O[C@@H]1OC=C(C(=O)OC)[C@H]2CC[C@H](C)[C@@H]12` [I-254], for which the figures for the inhibition at 320 µM (stock) (in test [1]; in the test with HUFEC) were 4.6% and 4.7%, respectively.

Consider `CCNC(=O)O[C@@H]1OC=C(C(=O)OC)[C@H]2CC=C(C)[C@@H]12` [I-151], for which the results for the inhibition at 320 µM (stock) (in test [1]; in the test on HUFEC) were 38.1% and 35.9%, respectively.

For the molecule `COC(=O)C1=CO[C@@H](OC(=O)NCCCc2ccccc2)[C@H]2[C@@H]1CC[C@@H]2C` [I-217], the values for the inhibition at 320 µM (stock) (in test [1]; with HUFEC) were 7.2% and 9.4%, respectively.

Consider `COC(=O)C1=CO[C@@H](OC(=O)NCc2cccnc2)[C@H]2[C@@H]1CC[C@@H]2C` [I-178], for which the results for the inhibition at 320 µM (stock) (in test [1]; in the test on HUFEC) were 5.8% and 6.3%, respectively.

For `O=C(C1=COC[C@@H]2C(CO)=CC[C@H]12)N1CCN(CCO)CC1` [I-301], the inhibition at 320 µM (stock) in test [1] amounted to 15.9%; in the test with HUFEC, 56%.

On to `COC(=O)C1=CO[C@@H](OC(=O)Nc2ccc(Cl)cc2C(F)(F)F)[C@@H]2C(C)=CC[C@H]12` [I-164], for which the inhibition at 320 µM (stock) in test [1] stood at 2.5%; with HUFEC, 5.9%.

As for `COC(=O)C1=CO[C@@H](OC(=O)NC2CC2)[C@H]2[C@@H]1CC[C@@H]2C` [I-218], the results for the inhibition at 320 µM (stock) (in test [1]; with HUFEC) were 5.4% and 25%, respectively.

For `COC(=O)C1=CO[C@@H](OC(=O)NCCc2ccccc2F)[C@@H]2C(C)=CC[C@H]12` [I-82], the inhibition at 320 µM (stock) amounted to 5.5% in test [1] and 13.7% in the test on HUFEC.

For the molecule `COC(=O)C1=CO[C@@H](OC(=O)Nc2ccc(F)cc2)[C@@H]2C(C)=CC[C@H]12` [I-156], the results for the inhibition at 320 µM (stock) (in test [1]; in the test with HUFEC) were 10.9% and 5.8%, respectively.

In general, inhibition refers to the relative decrease from the control value, in per cent.
